Test systems include OVCAR-3 ovarian; HL-60(TB) leukemia; SK-MEL-2 melanoma; DLD-1 colon; SNB-75 CNS; SW-620 colon; NCI-H23 lung; NCI-H226 lung; BT-549 breast; XF 498 CNS.
Holding throughout (assay): NCI anticancer screen, dose series, 48 h

Values joined by “and” are separate entries in the source; they are usually repeats but may differ in a detail not shown here. Identical values can stand only once.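 Following 48 hours of exposure in 96-well plates, responses at five concentrations were used to interpolate endpoints linearly. GI50 marks 50% less growth. At the TGI there is no net growth.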

In the case of `CCOC(=O)C(=O)CC(=O)C(Br)C(Br)c1ccc(Cl)cc1` (centres undefined), the TGI in the assay on OVCAR-3 ovarian is 87.8 µM; with HL-60(TB) leukemia, 42 µM; with SK-MEL-2 melanoma, more than 100 µM; in the assay with DLD-1 colon, 43.1 µM; in the assay with SNB-75 CNS, more than 100 µM; in the assay on SW-620 colon, more than 100 µM. The compound also had a TGI with NCI-H23 lung of 96.1 µM.

For the compound `COc1cc2c(cc1O)CCN[C@@]21CS[C@H]2c3c(OC(C)=O)c(C)c4c(c3C(COC1=O)N1C2C2NC(Cc3cc(C)c(OC)c(O)c32)[C@@H]1O)OCO4` (some centres undefined), the GI50 with OVCAR-3 ovarian was 0.000341 ng/mL; in the assay with SK-MEL-2 melanoma, 4.5 ng/mL; in the assay on DLD-1 colon, 0.000365 ng/mL and 4.5 ng/mL; in the assay on SNB-75 CNS, 4.5 ng/mL; in the assay on SW-620 colon, 4.5 ng/mL; in the assay with NCI-H23 lung it was 4.5 ng/mL. The TGI in the assay with OVCAR-3 ovarian was 0.00531 ng/mL; in the assay with HL-60(TB) leukemia, > 100 µM and 8.2e-07 µg/mL; in the assay with SK-MEL-2 melanoma, < 10 nM and 0.0045 µg/mL; in the assay on SW-620 colon it was 7.33 µM and 4.98 µg/mL; in the assay on NCI-H23 lung it was 298 nM and 1.3e-07 µg/mL and 0.0045 µg/mL; with NCI-H226 lung it was 0.000273 ng/mL.

Turning to `COc1cccc(NC(=O)/C(CS(=O)(=O)CCC(C(C)=O)C(C)=O)=N\NC(C)(C)C)c1`, the TGI with OVCAR-3 ovarian, in the assay on HL-60(TB) leukemia, in the assay on SK-MEL-2 melanoma, with DLD-1 colon, in the assay on SNB-75 CNS and in the assay on SW-620 colon was more than 100 µM in each case. Moreover, the TGI with NCI-H23 lung and with NCI-H226 lung was more than 100 µM each time.

In the case of `COc1cc(O)c(C(=O)C2Cc3ccccc32)c(OC)c1` (centres undefined), the TGI was 39.7 µM in the assay with HL-60(TB) leukemia; 95 µM in the assay with SK-MEL-2 melanoma; more than 100 µM in the assay with DLD-1 colon; more than 100 µM with SNB-75 CNS; more than 100 µM with SW-620 colon; 86 µM with NCI-H226 lung.

For `CC(=O)OC1COC(N2C(=O)C(=O)c3ccccc32)C(OC(C)=O)C1OC(C)=O` (centres undefined), the TGI with OVCAR-3 ovarian, in the assay on SK-MEL-2 melanoma, in the assay on DLD-1 colon, in the assay on SNB-75 CNS, with SW-620 colon and in the assay on NCI-H23 lung was more than 100 µM in each case. Besides, the TGI in the assay on NCI-H226 lung was more than 100 µM.

For the compound `CSCSCC(CO)NC(=O)/C=C/c1c(C)[nH]c(=O)[nH]c1=O` (centres undefined), the TGI in the assay on OVCAR-3 ovarian, with HL-60(TB) leukemia, in the assay with SK-MEL-2 melanoma, in the assay with DLD-1 colon, in the assay with SNB-75 CNS and with SW-620 colon was more than 100 µM each time. The TGI with NCI-H23 lung and in the assay with NCI-H226 lung was more than 100 µM each time.

Consider `O=C1c2ccccc2C(=O)c2c1ccc1c3ccccc3n(-c3ccccc3)c21`, for which the TGI stood at 55 µM with OVCAR-3 ovarian; 8.47 µM with HL-60(TB) leukemia; 46.8 µM in the assay with SK-MEL-2 melanoma; 41.6 µM in the assay with DLD-1 colon; 44.9 µM in the assay on SNB-75 CNS; 48 µM in the assay on SW-620 colon. Besides, the TGI in the assay with BT-549 breast was found to be 51.3 µM; with NCI-H23 lung it was 34 µM; with NCI-H226 lung, 44.1 µM.

As to `O=C1c2ccccc2-c2cn(Cc3ccccc3)c3cccc(c23)C1c1cccnc1` (centres undefined), the GI50 in the assay with OVCAR-3 ovarian was 1.8 µM; with HL-60(TB) leukemia, 2.4 µM; in the assay with SK-MEL-2 melanoma, 3.9 µM; with SNB-75 CNS, 1.38 µM; in the assay on SW-620 colon, 1.88 µM; in the assay on BT-549 breast it was 6.62 µM. In addition, the GI50 in the assay with NCI-H23 lung is 1.74 µM; in the assay with NCI-H226 lung, more than 50 µM. The TGI is 4.95 µM with OVCAR-3 ovarian; 19.5 µM in the assay with HL-60(TB) leukemia; more than 50 µM with SK-MEL-2 melanoma; 26 µM in the assay on SNB-75 CNS; more than 50 µM in the assay with SW-620 colon; more than 50 µM in the assay on BT-549 breast. The TGI with NCI-H23 lung and with NCI-H226 lung was more than 50 µM in each case.

Take `CCOC(=O)c1c(CN2CCCCC2)nc2ccc(Cl)cc2c1-c1ccccc1`: the GI50 with OVCAR-3 ovarian is 17.7 µM; in the assay on HL-60(TB) leukemia, 18.1 µM; in the assay on SK-MEL-2 melanoma it was 18.9 µM; with SNB-75 CNS, 47.7 µM; in the assay with SW-620 colon, 18.5 µM; with BT-549 breast, 39.5 µM. Also, the GI50 in the assay with NCI-H23 lung was 24.2 µM; with NCI-H226 lung, 20.7 µM. For the same compound, the TGI with OVCAR-3 ovarian was 38.1 µM; with HL-60(TB) leukemia, 43.4 µM; in the assay with SK-MEL-2 melanoma, 40.6 µM; in the assay on SNB-75 CNS it was more than 100 µM; with SW-620 colon, 39.2 µM; in the assay on BT-549 breast it was more than 100 µM. Moreover, the TGI with NCI-H23 lung worked out at 64.1 µM; in the assay on NCI-H226 lung it was 40.4 µM.

As to `CC1OC(O[C@@H]2C=C3CC[C@@H]4[C@H](CC[C@]5(C)[C@@H](c6ccc(=O)oc6)CC[C@]45O)[C@@]3(C)CC2)C(O)C(O)C1O` (some centres undefined), the TGI in the assay on OVCAR-3 ovarian is 0.00262 µM and 0.000359 µM; in the assay on SK-MEL-2 melanoma, 0.0243 µM; with DLD-1 colon, 0.003 µM; with SNB-75 CNS, 0.003 µM. For the same compound, the GI50 is 0.0015 µM and 0.00592 µM with HL-60(TB) leukemia; 0.000621 µM in the assay with DLD-1 colon; 0.00615 µM in the assay with BT-549 breast.

As to `N#Cc1sc2nc3c(c(-c4ccccc4)c2c1N)CCCC3`, the TGI was more than 100 µM with HL-60(TB) leukemia; more than 100 µM with SK-MEL-2 melanoma; 92.2 µM in the assay with XF 498 CNS; more than 100 µM with SW-620 colon; more than 100 µM in the assay on NCI-H23 lung; more than 100 µM in the assay with NCI-H226 lung.

Take `COc1ccc([C@@H]2[C@@H](Cl)C(=O)N2c2cc(OC)c(OC)c(OC)c2)cc1C`: the GI50 with OVCAR-3 ovarian is 0.0241 µM; in the assay with HL-60(TB) leukemia it was 0.0272 µM; with SK-MEL-2 melanoma, 0.0496 µM; with SNB-75 CNS it was 0.0355 µM; with SW-620 colon it was 0.0462 µM; with BT-549 breast, 0.0717 µM. The results for the GI50 with NCI-H23 lung and in the assay with NCI-H226 lung were 0.0853 µM and 13.2 µM, respectively. Besides, the TGI in the assay with OVCAR-3 ovarian amounted to 0.0581 µM; in the assay with HL-60(TB) leukemia it was 0.0767 µM; in the assay on SK-MEL-2 melanoma it was 19.6 µM; in the assay on SNB-75 CNS, 37.9 µM; with SW-620 colon, 34.5 µM; in the assay with BT-549 breast, 1.13 µM. In addition, the TGI with NCI-H23 lung is more than 100 µM; in the assay on NCI-H226 lung, 73.9 µM.

With `NN=C1/C(=C\c2ccccc2)CCC/C1=C/c1ccccc1`, the TGI is more than 100 µM in the assay with OVCAR-3 ovarian; 45.1 µM in the assay with HL-60(TB) leukemia; more than 100 µM in the assay with SK-MEL-2 melanoma; more than 100 µM with DLD-1 colon; more than 100 µM in the assay on SNB-75 CNS; more than 100 µM with SW-620 colon. The same compound yielded a TGI with NCI-H23 lung of more than 100 µM.

On to `O=C(NOCCO)c1ccc2cncn2c1Nc1ccc(I)cc1F`, for which the GI50 in the assay with OVCAR-3 ovarian is > 10 µM and 32.7 µM; in the assay on HL-60(TB) leukemia it was 0.00191 µM and < 0.01 µM; in the assay on SK-MEL-2 melanoma it was 0.00127 µM and < 0.01 µM; in the assay on SNB-75 CNS it was > 8.85 µM and 14.3 µM; with SW-620 colon, 0.00386 µM and < 0.01 µM; with BT-549 breast, > 10 µM and 11.1 µM. The GI50 in the assay on NCI-H23 lung is 0.0189 µM and 0.0195 µM; in the assay with NCI-H226 lung, 4.86 µM and 7.37 µM. For the same compound, the TGI is more than 100 µM in the assay with OVCAR-3 ovarian; more than 100 µM in the assay on HL-60(TB) leukemia; 0.00636 µM and < 0.01 µM with SK-MEL-2 melanoma; more than 100 µM in the assay on SNB-75 CNS; more than 100 µM with SW-620 colon; more than 91.7 µM with BT-549 breast. Besides, the TGI in the assay with NCI-H23 lung was > 10 µM and 45.2 µM; in the assay with NCI-H226 lung it was more than 100 µM.

Take `O=C(Nc1c[nH]c(=O)[nH]c1=O)Oc1ccccc1`: the TGI in the assay on OVCAR-3 ovarian is more than 100 µM; in the assay on HL-60(TB) leukemia, 33.5 µM; in the assay with SK-MEL-2 melanoma it was more than 100 µM; in the assay on SNB-75 CNS, more than 100 µM; with SW-620 colon it was more than 100 µM; in the assay on BT-549 breast, more than 100 µM. Further, the TGI in the assay with NCI-H23 lung and in the assay with NCI-H226 lung was more than 100 µM throughout.

Consider `COC(OC)c1cccc2c1C(=O)CCC1(CC2)OCCCCO1`, for which the TGI in the assay with OVCAR-3 ovarian, in the assay on HL-60(TB) leukemia, in the assay with SK-MEL-2 melanoma, with DLD-1 colon, in the assay with SNB-75 CNS and with SW-620 colon was more than 100 µM in each case. The TGI in the assay with NCI-H23 lung and in the assay with NCI-H226 lung was more than 100 µM throughout.

Consider `CN(C(=O)C12C3C4C1C1C2C3C41C#N)C(C)(C)C` (centres undefined), for which the TGI with OVCAR-3 ovarian, with HL-60(TB) leukemia, in the assay on SK-MEL-2 melanoma, in the assay with DLD-1 colon, in the assay with SNB-75 CNS and in the assay on SW-620 colon was more than 100 µM each time. Moreover, the TGI in the assay on NCI-H23 lung and with NCI-H226 lung was more than 100 µM in each case.

In the case of `COc1cc(OC)c(/C=C/S(=O)(=O)Cc2ccc(OC)c(N)n2)c(OC)c1`, the GI50 is less than 0.01 µM in the assay with OVCAR-3 ovarian; less than 0.01 µM in the assay with HL-60(TB) leukemia; less than 0.01 µM in the assay with SW-620 colon; less than 0.01 µM in the assay on BT-549 breast; less than 0.0247 µM with NCI-H23 lung. Also, the TGI in the assay with OVCAR-3 ovarian was less than 0.01 µM; with HL-60(TB) leukemia, less than 0.0273 µM; with SK-MEL-2 melanoma it was more than 100 µM; with SNB-75 CNS, more than 100 µM; in the assay on SW-620 colon, more than 100 µM; in the assay with BT-549 breast it was more than 100 µM. Besides, the TGI in the assay with NCI-H23 lung and in the assay with NCI-H226 lung was more than 100 µM each time.

In the case of `N#Cc1ccc2c(-c3ccnc(NC4CC4)n3)c(-c3ccc(F)cc3)nn2c1`, the GI50 in the assay with OVCAR-3 ovarian was more than 25 µM; with HL-60(TB) leukemia it was more than 25 µM; in the assay with SK-MEL-2 melanoma, more than 25 µM; in the assay on SNB-75 CNS it was more than 17.2 µM; with SW-620 colon, more than 25 µM; in the assay with BT-549 breast, more than 25 µM. Besides, the GI50 in the assay with NCI-H23 lung and in the assay with NCI-H226 lung was more than 25 µM each time. Besides, the TGI in the assay on OVCAR-3 ovarian, with HL-60(TB) leukemia, in the assay on SK-MEL-2 melanoma, in the assay with SNB-75 CNS, in the assay on SW-620 colon and in the assay with BT-549 breast was more than 25 µM in each case. Moreover, the TGI in the assay on NCI-H23 lung and in the assay on NCI-H226 lung was more than 25 µM throughout.

Source of the values: PubChem BioAssay (NCI).
